Source: patent US11884627B2, “Compounds and compositions for treating conditions associated with LPA receptor activity” (Lhotse Bio, Inc., priority 2022, dated 2024)
Read-outs that look alike come from different tables or passages of the source.

Biological target: T1, human LPA1 (Homo sapiens, UniProt Q92633)
T1 construct: expressed in transfected cells; host or cells: CHO-K1
Assay: In vitro LPA1 calcium flux antagonist assay - Bioduro protocol
Type: cell-based
Details: CHO-K1 cells overexpressing human LPA1 and G15a, LPA challenge at EC80
Procedure, shortened: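 Calcium mobilization read on FLIPR after EC80 LPA was added to compound-pretreated (30 min) CHO-K1 cells co-expressing human LPA1 and G15a. Cells were starved 4 h and dye-loaded with Fluo-8 AM/2.5 mM probenecid in HBSS-Hepes; inhibition normalized between DMSO and LPA-control RFU.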

[1] = calcium mobilization on FLIPR Tetra, read-out: IC50
[2] = Table B3, read-out: Activity (IC50 class)

T1 sequence (Q92633 whole entry): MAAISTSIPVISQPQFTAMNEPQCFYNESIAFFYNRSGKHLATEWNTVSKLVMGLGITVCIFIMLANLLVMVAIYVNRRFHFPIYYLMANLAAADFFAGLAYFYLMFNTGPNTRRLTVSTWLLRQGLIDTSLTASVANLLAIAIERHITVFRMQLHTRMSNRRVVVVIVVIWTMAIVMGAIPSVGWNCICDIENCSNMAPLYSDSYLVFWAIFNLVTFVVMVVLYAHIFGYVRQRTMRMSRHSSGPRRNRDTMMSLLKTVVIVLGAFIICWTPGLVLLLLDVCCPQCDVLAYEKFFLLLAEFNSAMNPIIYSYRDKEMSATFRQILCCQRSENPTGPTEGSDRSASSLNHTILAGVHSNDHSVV

Row | SMILES | IC50 [1] [nM] | IC50 [2] [nM]
1 | COc1cc(OC2CC2)c(F)c(-c2ccc(NC3(C(=O)O)CCOCC3)cc2COC2CCCC2)c1 [Compound 249, 4-((2-((cyclopentyloxy)methyl)-3′-cyclopropoxy-2′-fluoro-5′-methoxy-[1,1′-biphenyl]-4-yl)amino)tetrahydro-2H-pyran-4-carboxylic acid] | 1.13 | < 100
2 | COc1cc(C2CC2)cc(-c2ccc(NC3(C(=O)O)CCOCC3)cc2COC2CCCC2)c1F [Compound 251] | 40.2 | < 100
3 | COc1cc(-c2c(C)cc(NC3(C(=O)O)CCOCC3)cc2COC2CCCC2)nc(OC)c1C [Compound 253, 4-((3-((cyclopentyloxy)methyl)-4-(4,6-dimethoxy-5-methylpyridin-2-yl)-5-methylphenyl)amino)tetrahydro-2H-pyran-4-carboxylic acid] | 54.3 | < 100
4 | COc1cc(-c2ccc(OC3(C(=O)O)CCOCC3)cc2CCC2CCOC2)c(F)c(OC)c1C (stereo not drawn) [Compound 260] | 174 | 100 to 1000
5 | CCOc1cccc(-c2ccc(NC3(C(=O)O)CCOCC3)cc2COC2CCCC2)c1Cl [Compound 264] | 5.42 | < 100
6 | O=C(O)C1(Nc2ccc(-c3cccc(OC4CC4)c3F)c(COC3CCCC3)c2)CCOCC1 [Compound 265, 4-((2-((cyclopentyloxy)methyl)-3′-cyclopropoxy-2′-fluoro-[1,1′-biphenyl]-4-yl)amino)tetrahydro-2H-pyran-4-carboxylic acid] | 12 | < 100
7 | CCOc1c(F)ccc(-c2ccc(NC3(C(=O)O)CCOCC3)cc2COC2CCCC2)c1F [Compound 266] | 142 | 100 to 1000
8 | CCOc1cccc(-c2ccc(NC3(C(=O)O)CCOCC3)cc2CCC2CCCC2)c1F [Compound 272] | 6.96 | < 100
9 | COc1cc(-c2c(COC3CCCC3)cc(NC3(C(=O)O)CCOCC3)cc2C(F)F)cc(OC)c1C [Compound 273] | 17.1 | < 100
10 | COc1cc(-c2c(COC3CCCC3)cc(NC3(C(=O)O)CCOCC3)cc2C(F)(F)F)cc(OC)c1C [Compound 275] | 229 | 100 to 1000
11 | CCNc1cccc(-c2ccc(NC3(C(=O)O)CCOCC3)cc2COC2CCCC2)c1F [Compound 278, 4-((2-((cyclopentyloxy)methyl)-3′-(ethylamino)-2′-fluoro-[1,1′-biphenyl]-4-yl)amino)tetrahydro-2H-pyran-4-carboxylic acid] | 36.6 | < 100
12 | CCCc1cccc(-c2ccc(NC3(C(=O)O)CCOCC3)cc2COC2CCCC2)c1F [Compound 286] | 9.87 | < 100
13 | CCOc1cc(OC)cc(-c2ccc(NC3(C(=O)O)CCOCC3)cc2COC2CC2)c1F [Compound 288] | 11.9 | < 100
14 | O=C(O)C1(Nc2ccc(-c3cccc(OC4CC4)c3F)c(COC3CC3)c2)CCOCC1 [Compound 289] | 51 | < 100
15 | COc1cc(OC2CC2)c(F)c(-c2ccc(NC3(C(=O)O)CCOCC3)cc2COC2CC2)c1 [Compound 290] | 15.8 | < 100
16 | O=C(O)C1(Nc2ccc(-c3cccc(OC4CCC4)c3F)c(COC3CC3)c2)CCOCC1 [Compound 291] | 173 | < 100

Row | SMILES | IC50 [1] [nM] | IC50 [2] [nM]
17 | COc1cc(-c2ccc(NC3(C(=O)O)CCOCC3)cc2COC2CC2)c(Cl)c(OC)c1C [Compound 293] | 5.72 | < 100
18 | CCOc1cccc(-c2ccc(NC3(C(=O)O)CCOCC3)cc2CCC2CC2)c1C(F)F [Compound 296] | 2.4 | < 100
19 | COc1cc(-c2ccc(NC3(C(=O)O)CCOCC3)cc2COC2CCCC2)c(F)c(OC)c1C(C)O (stereo not drawn) [Compound 300] | 35.3 | < 100
20 | O=C(O)C1(Nc2ccc(-c3cccc(OC4CC4)c3C(F)F)c(COC3CCCC3)c2)CC1 [Compound 301] | 12.5 | < 100
21 | COc1cc(OC)c(C(F)F)c(-c2ccc(NC3(C(=O)O)CCOCC3)cc2COC2CC2)c1 [Compound 302] | 85.2 | 100 to 1000
22 | COc1cc(OC)c(Cl)c(-c2ccc(NC3(C(=O)O)CCOCC3)cc2COC2CC2)c1 [Compound 303] | 12.3 | < 100
23 | O=C(O)C1(Nc2ccc(-c3cccc(OC4CC4)c3)c(COC3CC3)c2)CCOCC1 [Compound 304] | 5.64 | > 1000
24 | O=C(O)C1(Nc2ccc(-c3cccc(CCO)c3F)c(COC3CC3)c2)CCOCC1 [Compound 305] | 711 | > 1000
25 | CCCOc1cccc(-c2ccc(NC3(C(=O)O)CCOCC3)cc2COC2CC2)c1F [Compound 307] | 58.4 | < 100
26 | COc1cc(-c2c(C)cc(NC3(C(=O)O)CCOCC3)cc2CCC2CCOC2)cc(OC)c1C (stereo not drawn) [Compound 309] | 37.7 | < 100
27 | CCOc1c(C)ccc(-c2ccc(NC3(C(=O)O)CCOCC3)cc2COC2CC2)c1C [Compound 313] | 5.93 | < 100
28 | COc1cc(-c2ccc(NC3(C(=O)O)CCOCC3)cc2COC2CC2)c(C(F)F)c(OC)n1 [Compound 314] | 37 | < 100
29 | CCOc1cc(OC)cc(-c2ccc(NC3(C(=O)O)CCOCC3)cc2COC2CC2)c1 [Compound 316] | 1080 | > 1000
30 | CCOc1cccc(-c2ccc(NC3(C(=O)O)CC3)cc2COC2CCCC2)c1C(F)F [Compound 317] | 14 | < 100
31 | COc1cc(OC)c(C(F)F)c(-c2ccc(NC3(C(=O)O)CCOCC3)cc2COC2CCCC2)c1 [Compound 320] | 12.1 | < 100

Next, values leading:

Row | IC50 [1] [nM] | IC50 [2] [nM] | SMILES
32 | 1610 | > 1000 | COc1cc(-c2ccc(OC3(C(=O)O)CCOCC3)cc2CO[C@@H]2CCOC2)c(F)c(OC)c1C [Compound 247]
33 | 31.7 | < 100 | COc1cc(OC2CC2)cc(-c2ccc(NC3(C(=O)O)CCOCC3)cc2COC2CCCC2)c1F [Compound 250]
34 | 8.41 | < 100 | COc1cc(OC)c(Cl)c(-c2ccc(NC3(C(=O)O)CCOCC3)cc2COC2CCCC2)c1 [Compound 257]
35 | 51.9 | < 100 | COc1cc(-c2ccc(NC3(C(=O)O)CCOCC3)cc2COC2CCCC2)c(Cl)c(OC)c1F [Compound 261]
36 | 30.8 | < 100 | COc1cc(-c2ccc(NC3(C(=O)O)CCOCC3)cc2COC2CCCC2)c(Cl)c(OC)c1C#N [Compound 262]
37 | 60.4 | < 100 | COc1cc(-c2ccc(NC3(C(=O)O)CCOCC3)cc2COC2CCC2)c(F)c(OC)c1C [Compound 263]
38 | 68 | < 100 | CCOc1cccc(-c2ccc(NC3(C(=O)O)CCOCC3)cc2CCC2CCOC2)c1F (stereo not drawn) [Compound 267]
39 | 79.8 | < 100 | COc1c(C)c(OC)c(F)c(-c2ccc(NC3(C(=O)O)CCOCC3)cc2COC2CCCC2)c1F [Compound 270]
40 | 21.4 | < 100 | COc1cc(-c2ccc(NC3(C(=O)O)CCOCC3)cc2COC2CCCC2)c(F)c(OC)c1C(C)=O [Compound 271]
41 | 28 | < 100 | COc1cc(-c2ccc(NC3(C(=O)O)CCOCC3)cc2COC2CCCC2)cc(OC)c1C(F)F [Compound 274]
42 | 25.4 | < 100 | COc1cc(-c2ccc(NC3(C(=O)O)CCOCC3)cc2COC2CCCCC2)c(F)c(OC)c1C [Compound 276]
43 | 72.7 | < 100 | CC(C)COc1cccc(-c2ccc(NC3(C(=O)O)CCOCC3)cc2COC2CCCC2)c1F [Compound 277]
44 | 4.19 | < 100 | CCOc1cccc(-c2ccc(NC3(C(=O)O)CCOCC3)cc2COC2CC2)c1C(F)F [Compound 279, 4-((2-(cyclopropoxymethyl)-2′-(difluoromethyl)-3′-ethoxy-[1,1′-biphenyl]-4-yl)amino)tetrahydro-2H-pyran-4-carboxylic acid]
45 | 110 | 100 to 1000 | COc1cc(-c2ccc(OC3(C(=O)O)CCOCC3)cc2CO[C@H]2CCOC2)c(F)c(OC)c1C [Compound 281]
46 | 2.46 | < 100 | CCOc1cc(OC)cc(-c2ccc(NC3(C(=O)O)CCOCC3)cc2COC2CCCC2)c1F [Compound 287]
47 | 117 | 100 to 1000 | COc1cc(OC)c(F)c(-c2ccc(NC3(C(=O)O)CCOCC3)cc2COC2CC2)c1 [Compound 292]
48 | 137 | 100 to 1000 | CCOc1cc(OC)c(F)c(-c2ccc(NC3(C(=O)O)CCOCC3)cc2COC2CCCC2)c1 [Compound 297]
49 | 38.4 | < 100 | COc1cc(-c2ccc(NC3(C(=O)O)CCOCC3)cc2COC2CCCC2)c(F)c(OC)c1C(C)O (stereo not drawn) [Compound 299]
50 | 165 | 100 to 1000 | CCOc1cccc(-c2ccc(NC3(C(=O)O)CCOCC3)cc2COC2CC2)c1F [Compound 306]
51 | 23.6 | < 100 | COc1cc(-c2c(C)cc(NC3(C(=O)O)CCOCC3)cc2CCC2CCOC2)cc(OC)c1C (stereo not drawn) [Compound 308]
52 | 6.93 | < 100 | COc1cc(-c2ccc(NC3(C(=O)O)CCOCC3)cc2COC2CC2)c(C(F)F)c(OC)c1C [Compound 310]
53 | 148 | 100 to 1000 | COCc1cccc(-c2ccc(NC3(C(=O)O)CCOCC3)cc2COC2CC2)c1C(F)F [Compound 311]
54 | 5.44 | < 100 | CCOc1c(C)c(OC)cc(-c2ccc(NC3(C(=O)O)CCOCC3)cc2COC2CC2)c1F [Compound 312]
55 | 24 | < 100 | CCOc1cc(OC)cc(-c2ccc(NC3(C(=O)O)CCOCC3)cc2COC2CCCC2)c1 [Compound 315]
56 | 9.47 | < 100 | COc1cc(-c2ccc(NC3(C(=O)O)CCOCC3)cc2COC2CC2)c(C)c(OC)c1C [Compound 318]
57 | 76.7 | < 100 | COc1cc(-c2ccc(NC3(C(=O)O)CCOCC3)cc2COC2CCCC2)c(F)cc1C [Compound 319]
